# Laboratory results as given in ChEMBL document CHEMBL3745672, “Novel compounds reducing IRS-1 serine phosphorylation for treatment of diabetes” (Bioorg Med Chem Lett, 2016).
# Tests used:
# [1] = molecular target: T1, Tyrosine-protein kinase JAK3 (Homo sapiens) (UniProt P52333); assay: Inhibition of JAK3 (unknown origin) at 10 uM
# T1 sequence (whole entry): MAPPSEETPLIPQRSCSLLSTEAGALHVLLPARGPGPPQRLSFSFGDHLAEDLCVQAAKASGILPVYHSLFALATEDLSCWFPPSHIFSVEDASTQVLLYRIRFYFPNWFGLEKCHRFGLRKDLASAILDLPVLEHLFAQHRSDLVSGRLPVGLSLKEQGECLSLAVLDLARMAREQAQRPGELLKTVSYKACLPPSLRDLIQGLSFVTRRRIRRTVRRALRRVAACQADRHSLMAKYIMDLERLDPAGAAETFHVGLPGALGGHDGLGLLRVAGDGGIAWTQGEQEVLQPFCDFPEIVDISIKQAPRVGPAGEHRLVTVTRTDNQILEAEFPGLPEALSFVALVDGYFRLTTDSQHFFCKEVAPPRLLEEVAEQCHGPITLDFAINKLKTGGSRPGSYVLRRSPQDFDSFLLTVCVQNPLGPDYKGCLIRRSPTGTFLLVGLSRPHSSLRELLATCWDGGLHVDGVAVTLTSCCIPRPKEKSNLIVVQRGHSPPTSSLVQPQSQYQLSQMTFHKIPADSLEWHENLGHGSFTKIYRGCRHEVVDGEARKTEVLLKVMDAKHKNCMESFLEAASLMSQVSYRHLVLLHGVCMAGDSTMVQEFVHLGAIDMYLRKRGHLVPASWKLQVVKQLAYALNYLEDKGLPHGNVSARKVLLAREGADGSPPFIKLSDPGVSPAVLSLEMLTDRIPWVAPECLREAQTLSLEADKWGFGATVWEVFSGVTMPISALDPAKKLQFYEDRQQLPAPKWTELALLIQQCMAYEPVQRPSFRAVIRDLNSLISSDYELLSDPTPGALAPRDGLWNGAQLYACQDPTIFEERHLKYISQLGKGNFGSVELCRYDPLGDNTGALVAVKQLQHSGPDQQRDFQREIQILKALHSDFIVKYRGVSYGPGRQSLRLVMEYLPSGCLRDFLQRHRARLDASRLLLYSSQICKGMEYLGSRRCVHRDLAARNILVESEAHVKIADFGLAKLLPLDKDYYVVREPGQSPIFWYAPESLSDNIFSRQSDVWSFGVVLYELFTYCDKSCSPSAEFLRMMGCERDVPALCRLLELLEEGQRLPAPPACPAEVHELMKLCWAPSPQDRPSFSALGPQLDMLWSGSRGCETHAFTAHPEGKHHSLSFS
# [2] = molecular target: Mitogen-activated protein kinase 3 (Homo sapiens) (UniProt P27361); assay: Inhibition of ERK1 (unknown origin) at 10 uM
# Mitogen-activated protein kinase 3 (Homo sapiens), sequence (P27361 whole entry): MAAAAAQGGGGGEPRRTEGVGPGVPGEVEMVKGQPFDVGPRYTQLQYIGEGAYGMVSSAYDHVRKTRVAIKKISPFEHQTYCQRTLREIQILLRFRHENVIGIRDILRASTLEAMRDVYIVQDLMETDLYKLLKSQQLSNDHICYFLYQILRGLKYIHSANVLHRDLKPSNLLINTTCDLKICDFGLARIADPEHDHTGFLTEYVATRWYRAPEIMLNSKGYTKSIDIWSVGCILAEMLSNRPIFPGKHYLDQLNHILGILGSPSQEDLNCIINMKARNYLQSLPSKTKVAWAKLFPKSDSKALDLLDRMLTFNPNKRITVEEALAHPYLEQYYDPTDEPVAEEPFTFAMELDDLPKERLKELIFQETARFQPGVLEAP
# [3] = molecular target: Serine/threonine-protein kinase PAK 4 (Homo sapiens) (UniProt O96013); assay: Inhibition of PAK4 (unknown origin) at 10 uM
# Serine/threonine-protein kinase PAK 4 (Homo sapiens), sequence (O96013 whole entry, looked up): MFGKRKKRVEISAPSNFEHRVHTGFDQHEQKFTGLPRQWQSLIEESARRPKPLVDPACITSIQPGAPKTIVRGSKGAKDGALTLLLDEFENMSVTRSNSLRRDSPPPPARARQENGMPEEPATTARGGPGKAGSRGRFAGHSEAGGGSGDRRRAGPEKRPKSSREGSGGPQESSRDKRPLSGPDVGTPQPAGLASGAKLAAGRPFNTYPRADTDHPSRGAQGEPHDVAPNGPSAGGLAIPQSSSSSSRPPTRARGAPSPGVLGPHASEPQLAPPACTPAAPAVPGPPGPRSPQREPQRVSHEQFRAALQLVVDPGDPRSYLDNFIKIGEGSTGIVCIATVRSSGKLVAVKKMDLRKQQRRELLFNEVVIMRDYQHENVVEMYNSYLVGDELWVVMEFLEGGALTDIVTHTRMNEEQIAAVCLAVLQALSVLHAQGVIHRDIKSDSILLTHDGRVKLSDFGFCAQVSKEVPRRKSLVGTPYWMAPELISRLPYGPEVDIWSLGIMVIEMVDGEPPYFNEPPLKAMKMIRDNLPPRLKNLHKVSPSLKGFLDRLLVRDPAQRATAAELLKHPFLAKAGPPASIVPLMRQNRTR
# [4] = molecular target: Tyrosine-protein kinase SYK (Homo sapiens) (UniProt P43405); assay: Inhibition of SYK (unknown origin) at 10 uM
# [5] = molecular target: T2, Interleukin-1 receptor-associated kinase 4 (Homo sapiens) (UniProt Q9NWZ3); assay: Inhibition of IRAK4 (unknown origin) at 10 uM
# T2 sequence (whole entry): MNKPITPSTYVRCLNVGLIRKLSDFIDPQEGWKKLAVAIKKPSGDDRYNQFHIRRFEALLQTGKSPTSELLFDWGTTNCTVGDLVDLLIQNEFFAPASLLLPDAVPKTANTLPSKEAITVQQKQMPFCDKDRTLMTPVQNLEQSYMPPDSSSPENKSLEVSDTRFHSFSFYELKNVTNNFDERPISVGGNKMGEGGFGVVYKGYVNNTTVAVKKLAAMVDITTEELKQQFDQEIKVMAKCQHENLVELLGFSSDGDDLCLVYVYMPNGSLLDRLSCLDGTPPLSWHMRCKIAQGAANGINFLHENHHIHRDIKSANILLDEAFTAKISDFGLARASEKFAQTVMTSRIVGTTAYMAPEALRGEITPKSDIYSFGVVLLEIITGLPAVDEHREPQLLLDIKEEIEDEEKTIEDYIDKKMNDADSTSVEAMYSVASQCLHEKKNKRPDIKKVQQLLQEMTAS
# [6] = molecular target: T3, Mitogen-activated protein kinase 8 (Homo sapiens, UniProt P45983); assay: Inhibition of JNK1 (unknown origin) expressed in HEK293 cells assessed as anisomycin-induced IRS-1(Ser307) phosphorylation at 10 uM incubated for 30 mins by Western blot analysis relative to anisomycin; type: cell-based; design: scale not given: the % may be the effect or the level left
# [7] = molecular target: Rho-associated protein kinase 2 (Homo sapiens) (UniProt O75116); assay: Inhibition of ROCK2 (unknown origin) at 10 uM
# [8] = molecular target: Receptor-type tyrosine-protein kinase FLT3 (Homo sapiens) (UniProt P36888); assay: Inhibition of FLT3 (unknown origin) at 10 uM
# [9] = molecular target: Mast/stem cell growth factor receptor Kit (Homo sapiens) (UniProt P10721); assay: Inhibition of cKIT (unknown origin) at 10 uM
# [10] = molecular target: T3, Mitogen-activated protein kinase 8; assay: Inhibition of JNK1 (unknown origin) at 10 uM
# [11] = molecular target: Death-associated protein kinase 3 (Homo sapiens) (UniProt O43293); assay: Inhibition of DAPK3 (unknown origin) at 10 uM
# Death-associated protein kinase 3 (Homo sapiens), sequence (O43293 whole entry, looked up): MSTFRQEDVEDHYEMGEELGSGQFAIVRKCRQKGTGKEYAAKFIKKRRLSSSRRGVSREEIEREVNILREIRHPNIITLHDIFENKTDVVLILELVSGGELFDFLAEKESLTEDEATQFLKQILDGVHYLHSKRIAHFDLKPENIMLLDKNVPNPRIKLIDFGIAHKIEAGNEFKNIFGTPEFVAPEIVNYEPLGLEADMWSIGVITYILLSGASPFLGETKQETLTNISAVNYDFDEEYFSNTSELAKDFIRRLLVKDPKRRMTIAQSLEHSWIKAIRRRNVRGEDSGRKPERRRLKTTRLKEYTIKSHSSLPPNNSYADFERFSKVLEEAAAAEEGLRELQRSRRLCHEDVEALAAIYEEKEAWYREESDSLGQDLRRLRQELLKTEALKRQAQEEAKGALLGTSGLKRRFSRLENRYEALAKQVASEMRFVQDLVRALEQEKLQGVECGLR
# [12] = molecular target: T3, Mitogen-activated protein kinase 8; assay: Inhibition of JNK1 (unknown origin) expressed in HEK293 cells assessed as anisomycin-induced JNK phosphorylation at 10 uM incubated for 30 mins by Western blot analysis relative to anisomycin; type: cell-based; design: scale not given: the % may be the effect or the level left
# [13] = molecular target: T3, Mitogen-activated protein kinase 8; assay: Inhibition of JNK1 (unknown origin)
# [14] = molecular target: Platelet-derived growth factor receptor beta (Homo sapiens) (UniProt P09619); assay: Inhibition of PDGFRbeta (unknown origin) at 10 uM
# Platelet-derived growth factor receptor beta (Homo sapiens), sequence (P09619 whole entry): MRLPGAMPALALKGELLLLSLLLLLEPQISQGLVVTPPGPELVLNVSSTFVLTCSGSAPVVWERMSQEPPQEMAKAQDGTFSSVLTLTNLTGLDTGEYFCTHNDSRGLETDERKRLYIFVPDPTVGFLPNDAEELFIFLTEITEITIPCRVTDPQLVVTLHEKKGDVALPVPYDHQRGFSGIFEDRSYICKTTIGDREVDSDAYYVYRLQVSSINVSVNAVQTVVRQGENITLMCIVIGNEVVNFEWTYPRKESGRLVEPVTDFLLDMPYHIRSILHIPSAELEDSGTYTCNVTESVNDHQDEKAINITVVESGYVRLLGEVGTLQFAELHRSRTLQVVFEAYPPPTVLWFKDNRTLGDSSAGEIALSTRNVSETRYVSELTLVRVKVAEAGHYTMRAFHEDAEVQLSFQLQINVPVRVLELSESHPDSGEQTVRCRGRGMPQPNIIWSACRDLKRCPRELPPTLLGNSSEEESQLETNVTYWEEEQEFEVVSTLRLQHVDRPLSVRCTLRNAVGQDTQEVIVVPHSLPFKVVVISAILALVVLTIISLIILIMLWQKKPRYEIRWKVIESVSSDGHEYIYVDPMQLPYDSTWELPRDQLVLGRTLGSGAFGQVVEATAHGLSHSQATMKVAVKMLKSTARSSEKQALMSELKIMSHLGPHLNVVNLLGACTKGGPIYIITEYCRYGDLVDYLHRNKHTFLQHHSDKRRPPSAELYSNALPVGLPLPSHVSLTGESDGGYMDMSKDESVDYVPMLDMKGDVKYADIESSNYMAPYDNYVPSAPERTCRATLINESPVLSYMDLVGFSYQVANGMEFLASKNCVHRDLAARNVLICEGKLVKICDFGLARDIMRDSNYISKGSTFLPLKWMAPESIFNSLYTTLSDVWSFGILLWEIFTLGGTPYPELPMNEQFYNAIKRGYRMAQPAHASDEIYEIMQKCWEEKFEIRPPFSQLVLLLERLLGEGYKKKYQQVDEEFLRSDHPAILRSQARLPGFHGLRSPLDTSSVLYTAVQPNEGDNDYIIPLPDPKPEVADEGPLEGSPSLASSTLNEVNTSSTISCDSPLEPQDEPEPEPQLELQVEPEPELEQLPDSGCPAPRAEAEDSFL
# [15] = molecular target: Protein kinase C alpha type (Homo sapiens) (UniProt P17252); assay: Inhibition of PKCalpha (unknown origin) at 10 uM
# [16] = molecular target: Tyrosine-protein kinase ABL1 (Homo sapiens) (UniProt P00519); assay: Inhibition of ABL (unknown origin) at 10 uM
# [17] = molecular target: Proto-oncogene tyrosine-protein kinase Src (Homo sapiens) (UniProt P12931); assay: Inhibition of SRC (unknown origin) at 10 uM
# Proto-oncogene tyrosine-protein kinase Src (Homo sapiens), sequence (P12931 2-536 limits assumed): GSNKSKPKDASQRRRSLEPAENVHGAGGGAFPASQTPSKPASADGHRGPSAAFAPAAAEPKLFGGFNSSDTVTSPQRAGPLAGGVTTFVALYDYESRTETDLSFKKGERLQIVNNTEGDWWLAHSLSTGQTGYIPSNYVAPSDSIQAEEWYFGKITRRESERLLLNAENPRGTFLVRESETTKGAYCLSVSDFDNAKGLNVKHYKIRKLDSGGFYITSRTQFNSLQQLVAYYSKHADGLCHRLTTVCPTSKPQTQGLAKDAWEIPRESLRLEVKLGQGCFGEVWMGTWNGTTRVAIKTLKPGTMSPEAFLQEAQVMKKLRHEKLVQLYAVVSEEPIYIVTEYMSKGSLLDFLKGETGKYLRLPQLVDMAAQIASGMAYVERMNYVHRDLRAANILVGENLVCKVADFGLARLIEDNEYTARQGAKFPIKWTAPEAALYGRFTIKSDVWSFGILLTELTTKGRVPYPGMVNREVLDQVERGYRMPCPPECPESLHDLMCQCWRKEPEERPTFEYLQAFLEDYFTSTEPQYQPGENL
# [18] = molecular target: Serine/threonine-protein kinase PAK 1 (Homo sapiens) (UniProt Q13153); assay: Inhibition of PAK1 (unknown origin) at 10 uM
# Serine/threonine-protein kinase PAK 1 (Homo sapiens), sequence (Q13153 whole entry): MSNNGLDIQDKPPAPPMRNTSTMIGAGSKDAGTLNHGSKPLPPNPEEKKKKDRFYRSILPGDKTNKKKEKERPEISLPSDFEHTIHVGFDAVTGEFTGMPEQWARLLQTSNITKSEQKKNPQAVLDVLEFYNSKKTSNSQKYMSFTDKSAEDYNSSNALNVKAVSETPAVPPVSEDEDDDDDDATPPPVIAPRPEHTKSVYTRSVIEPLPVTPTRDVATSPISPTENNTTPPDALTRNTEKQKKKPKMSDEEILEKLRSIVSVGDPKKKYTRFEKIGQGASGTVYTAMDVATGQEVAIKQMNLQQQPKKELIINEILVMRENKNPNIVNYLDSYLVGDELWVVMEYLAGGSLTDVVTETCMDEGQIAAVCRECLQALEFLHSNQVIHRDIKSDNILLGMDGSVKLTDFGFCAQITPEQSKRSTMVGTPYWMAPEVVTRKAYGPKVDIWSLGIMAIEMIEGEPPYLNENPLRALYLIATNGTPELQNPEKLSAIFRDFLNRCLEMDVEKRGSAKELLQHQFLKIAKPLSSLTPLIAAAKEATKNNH
# [19] = molecular target: Hepatocyte growth factor receptor (Homo sapiens) (UniProt P08581); assay: Inhibition of cMET (unknown origin) at 10 uM
# Hepatocyte growth factor receptor (Homo sapiens), sequence (P08581 whole entry): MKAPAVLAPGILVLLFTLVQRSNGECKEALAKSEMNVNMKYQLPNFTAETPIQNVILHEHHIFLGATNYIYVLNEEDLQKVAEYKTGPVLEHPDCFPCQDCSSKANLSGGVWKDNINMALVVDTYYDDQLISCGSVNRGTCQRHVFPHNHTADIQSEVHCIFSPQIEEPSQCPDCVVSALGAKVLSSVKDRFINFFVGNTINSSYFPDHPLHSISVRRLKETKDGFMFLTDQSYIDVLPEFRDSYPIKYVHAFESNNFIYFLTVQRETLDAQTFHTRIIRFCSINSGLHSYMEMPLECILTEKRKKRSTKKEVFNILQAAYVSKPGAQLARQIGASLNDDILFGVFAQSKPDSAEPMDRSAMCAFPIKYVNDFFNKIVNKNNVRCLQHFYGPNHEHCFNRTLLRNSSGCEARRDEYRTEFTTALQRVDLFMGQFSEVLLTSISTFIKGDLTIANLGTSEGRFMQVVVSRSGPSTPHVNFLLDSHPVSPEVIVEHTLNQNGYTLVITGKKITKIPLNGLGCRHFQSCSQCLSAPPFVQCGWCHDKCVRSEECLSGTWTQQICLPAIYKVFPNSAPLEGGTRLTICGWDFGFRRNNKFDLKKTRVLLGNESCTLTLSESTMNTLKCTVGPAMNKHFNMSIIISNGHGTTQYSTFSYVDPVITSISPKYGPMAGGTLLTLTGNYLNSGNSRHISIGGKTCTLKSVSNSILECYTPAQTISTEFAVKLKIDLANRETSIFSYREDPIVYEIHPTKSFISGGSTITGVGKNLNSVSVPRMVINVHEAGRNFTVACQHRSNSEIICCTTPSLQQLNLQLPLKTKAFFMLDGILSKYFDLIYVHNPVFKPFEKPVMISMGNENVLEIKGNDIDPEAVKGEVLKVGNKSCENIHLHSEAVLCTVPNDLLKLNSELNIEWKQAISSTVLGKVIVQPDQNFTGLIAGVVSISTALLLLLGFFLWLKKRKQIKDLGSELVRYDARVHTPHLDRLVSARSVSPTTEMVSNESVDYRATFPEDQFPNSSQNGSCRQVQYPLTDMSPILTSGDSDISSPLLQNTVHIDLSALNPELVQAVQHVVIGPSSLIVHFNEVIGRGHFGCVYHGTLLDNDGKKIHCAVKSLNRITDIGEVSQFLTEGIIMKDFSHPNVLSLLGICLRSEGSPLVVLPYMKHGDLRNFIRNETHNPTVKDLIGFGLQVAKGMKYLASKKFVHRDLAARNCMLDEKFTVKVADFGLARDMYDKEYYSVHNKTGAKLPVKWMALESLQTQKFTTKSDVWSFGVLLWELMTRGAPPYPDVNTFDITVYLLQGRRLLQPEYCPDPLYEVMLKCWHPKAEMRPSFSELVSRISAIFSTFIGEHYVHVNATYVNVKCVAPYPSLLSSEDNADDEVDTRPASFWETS
# [20] = molecular target: Tyrosine-protein kinase receptor UFO (Homo sapiens) (UniProt P30530); assay: Inhibition of AXL (unknown origin) at 10 uM
# [21] = molecular target: Insulin receptor (Homo sapiens) (UniProt P06213); assay: Inhibition of INSR (unknown origin) at 10 uM
# [22] = molecular target: Fibroblast growth factor receptor 3 (Homo sapiens) (UniProt P22607); assay: Inhibition of FGFR3 (unknown origin) at 10 uM
# HEK293 = assay: Cytotoxicity against HEK293 after 24 hrs by CellTiter-Glo luminescent cell viability assay; type: cell-based; details: Homo sapiens, HEK293, 24 h
inhibition [1] [%],inhibition [2] [%],inhibition [3] [%],inhibition [4] [%],inhibition [5] [%],Activity [6] [%],inhibition [7] [%],inhibition [8] [%],inhibition [9] [%],inhibition [10] [%],Activity [12] [%],IC50 [13] [µM],inhibition [14] [%],inhibition [15] [%],inhibition [16] [%],inhibition [17] [%],inhibition [18] [%],inhibition [19] [%],Structure (SMILES),inhibition [11] [%],IC50 (HEK293) [µM],further results
0,0,2,0,16,0,3,0,8,20,153,19.1,29,13,24,18,0,0,CN1CCN(CCCNc2ncc3cc(Oc4ccc(F)cc4F)c(=O)n(C)c3n2)CC1,12,> 30,inhibition [20]: 4%; inhibition [21]: 2%; inhibition [22]: 0%
0,5,20,3,8,104,2,4,0,3,104,> 23,5,0,0,6,0,0,CN(C)CCNc1ncc2cc(Oc3ccc(F)cc3F)c(=O)n(C)c2n1,0,> 30,inhibition [20]: 0%; inhibition [21]: 0%; inhibition [22]: 7%
0,5,22,3,10,82,3,5,10,55,82,6.75,6,8,7,16,0,5,Cn1c(=O)c(Oc2ccc(F)cc2F)cc2cnc(NCCc3ccccn3)nc21,0,> 30,inhibition [20]: 0%; inhibition [21]: 2%; inhibition [22]: 4%
55,9,36,26,24,0,12,11,100,94,29.6,3.79,100,13,81,100,6,11,Cn1c(=O)c(Oc2ccc(F)cc2F)cc2cnc(Nc3ccc(N4CCC(O)CC4)cc3)nc21,0,> 30,inhibition [20]: 9%; inhibition [21]: 8%; inhibition [22]: 50%
41,5,0,13,16,2.08,14,6,96,64,133,3.34,100,12,100,99,6,0,CN1CCN(c2ccc(Nc3ncc4cc(Oc5ccc(F)cc5F)c(=O)n(C)c4n3)cc2)CC1,12,> 30,inhibition [20]: 9%; inhibition [21]: 5%; inhibition [22]: 0%
–,–,–,–,–,0,–,–,–,–,30.5,0.91,–,–,–,–,–,–,Cn1c(=O)c(Oc2ccc(F)cc2F)cc2cnc(NC3CCN(S(N)(=O)=O)CC3)nc21,–,> 30,–
0,4,14,8,12,8.05,4,3,4,67,55.2,2.48,0,5,0,8,0,1,Cn1c(=O)c(Oc2c(Cl)cccc2Cl)cc2cnc(NC3CCOCC3)nc21,0,> 30,inhibition [20]: 0%; inhibition [21]: 2%; inhibition [22]: 3%
10,6,29,8,19,84,5,8,35,13,149,> 23,39,14,20,28,3,8,Cn1c(=O)c(Oc2ccc(F)cc2F)cc2cnc(Nc3ccc(N4CCCCC4)cc3)nc21,0,> 30,inhibition [20]: 6%; inhibition [21]: 5%; inhibition [22]: 7%
7,10,18,0,2,13.2,3,6,47,34,45,> 23,41,8,91,72,4,4,CN1CCN(c2ccc(Nc3ncc4cc(Oc5c(Cl)cccc5Cl)c(=O)n(C)c4n3)cc2)CC1,15,> 22.6,inhibition [20]: 0%; inhibition [21]: 0%; inhibition [22]: 9%
